Bliss excess data for 7 compounds are collected here from the supplement of paper PMC11061612.

Common to all, as to assay: Bliss excess, mean over the matrix (fraction); higher = more synergy
One assay relates to 786-0 (Kidney Carcinoma). In short, it runs like this: (§1)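 After 24 hours at 37°C and 5% CO2 in 1536-well plates, cells in DMEM/F12 or RPMI plus 10% FBS received two-drug dose matrices for 72 hours. Viability came from CellTiter-Glo 2.0 luminescence and was scaled as inhibition, anchored at 0 by vehicle wells and at 1 by blank wells. Combination Emax is taken as the second-highest inhibition in the matrix, and Bliss excess as the observed combination effect less EA + EB − EA·EB, with EA and EB the single-agent effects.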

Assay [1] concerns AsPC-1 (Pancreatic Carcinoma). Summed up: as §1
The next assay relates to CHL-1 (Melanoma). In short, it runs like this: as §1
Assay [2] relates to COLO-684 (Endometrial Carcinoma). In short, it runs like this:
as §1

Assay [3] relates to HSC-3 (Oral Cavity Carcinoma). Summed up: as §1
For assay [4], the system named is HTC-C3 (Thyroid Gland Carcinoma). Summed up: as §1
For assay [5], the system named is JHH-1 (Hepatocellular Carcinoma). Summed up:
as §1

In another assay the test system is KYM-1 (Rhabdomyosarcoma). In short, it runs like this:
as §1

In assay [6] the test system is NCI-H1155 (Non-Small Cell Lung Carcinoma). In short, it runs like this:
as §1

For assay [7], the system named is OCI-AML5 (Acute Myeloid Leukemia). In short, it runs like this: as §1
Assay [8] deals with OV-90 (Ovarian Carcinoma). In short, it runs like this:
as §1

Assay [9] concerns OVTOKO (Ovarian Carcinoma). In short, it runs like this: as §1
Assay [10] relates to PANC-02-03 (Pancreatic Carcinoma). In short, it runs like this: as §1
For assay [11], the system named is PC-14 (Lung Adenocarcinoma). In short, it runs like this: as §1
The subject of assay [12] is RL95-2 (Endometrial Carcinoma). Summed up: as §1
In assay [13] the test system is RMG-I (Ovarian Carcinoma). Summed up:
as §1

The test system of assay [14] is RPMI-8866 (Chronic Myelogenous Leukemia). Summed up: as §1
A further assay deals with RT4 (Bladder Carcinoma). Summed up:
as §1

Assay [15] deals with SK-MM-2 (Plasma Cell Myeloma). Summed up:
as §1

In assay [16] the test system is SNU-175 (Colorectal Carcinoma). In short, it runs like this: as §1

Structures are written as SMILES.

On to `C=CCn1c(=O)c2cnc(Nc3ccc(N4CCN(C)CC4)cc3)nc2n1-c1cccc(C(C)(C)O)n1` [AZD1775] + O=C(c1cc(Cc2n[nH]c(=O)c3ccccc23)ccc1F)N1CCN(C(=O)C2CC2)CC1 [Olaparib] (first compound max 1 µM, partner max 10 µM), for which the Bliss excess is -0.0097 in the assay with 786-0 (Kidney Carcinoma); 0.0039 in assay [1]; -0.0491 in the assay on CHL-1 (Melanoma); -0.12 in [2]; 0.0013 in [3]; -0.0064 in [4]. For the same compound, the Bliss excess in assay [5] is -0.0244; with KYM-1 (Rhabdomyosarcoma), 0.0188; in [6] it was 0.0355; in assay [7], -0.0096; in assay [8], -0.0424; in assay [9], -0.0514. Moreover, the Bliss excess in [10] was -0.0513; in [11], -0.0248; in assay [12] it was -0.0372; in [13], -0.0105; in assay [14] it was -0.0528; in the assay on RT4 (Bladder Carcinoma), 0.0107. Also, the Bliss excess in assay [15] is -0.0471; in [16], -0.0028.
With `CCN(CCO)CCCOc1ccc2c(Nc3cc(CC(=O)Nc4cccc(F)c4)[nH]n3)ncnc2c1` [AZD2811] + C=CCn1c(=O)c2cnc(Nc3ccc(N4CCN(C)CC4)cc3)nc2n1-c1cccc(C(C)(C)O)n1 [AZD1775] (first compound max 1 µM, partner max 1 µM), the Bliss excess with 786-0 (Kidney Carcinoma) was -0.0246; in assay [1], -0.0738; in the assay with CHL-1 (Melanoma), 0.0161; in assay [2], -0.0443; in [3] it was 0.0504; in assay [4], -0.0174. Moreover, the Bliss excess in [5] is -0.0609; in the assay on KYM-1 (Rhabdomyosarcoma), -0.0096; in assay [6], 0.0451; in assay [7], -0.0295; in assay [8], 0.021; in [9], -0.0353. Further, the Bliss excess in [10] was -0.0628; in assay [11], -0.0026; in [12], 0.0389; in assay [13] it was -0.0711; in assay [14], 0.0714; with RT4 (Bladder Carcinoma) it was 0.0196. Besides, the results for the Bliss excess in assay [15] and in [16] were -0.0005 and -0.0108, respectively.
Regarding `COc1nnc2ccc(N3CCC(c4ccc(OCCN5CCN(C)C(=O)[C@H]5C)cc4)CC3)nn12` [AZD5153] + CN(CC[C@H](CSC1=CC=CC=C1)NC2=C(C=C(C=C2)S(=O)(=O)NC(=O)C3=CC=C(C=C3)N4CCC(CC4)[C@H](C5=CC=CC=C5C6=CC=C(C=C6)Cl)O)S(=O)(=O)C(F)(F)F)CCO [AZD4320] (first compound max 1 µM, 7x7, partner max 1 µM), the Bliss excess is 0.0508 with 786-0 (Kidney Carcinoma); -0.08 in assay [1]; 0.0794 in assay [3]; 0.0859 in [4]; 0.0585 in assay [5]; 0.0603 in assay [6]. Besides, the Bliss excess in assay [7] was 0.0299; in assay [9], 0.0926; in [11], 0.0111; in assay [12] it was 0.0571; in assay [14], -0.0318; with RT4 (Bladder Carcinoma), 0.0826. Further, the Bliss excess in assay [16] amounted to 0.002.
As to `Cc1c2c(nn1C)CSCc1cc(n(C)n1)CSc1cc(c3ccccc3c1)OCCCc1c(C(=O)O)n(C)c3c-2c(Cl)ccc13` [AZD5991] + Cn1cnc2c(F)c(Nc3ccc(Br)cc3Cl)c(C(=O)NOCCO)cc21 [Selumetinib] (first compound max 1 µM, 7x7, partner max 3 µM), the Bliss excess in the assay with 786-0 (Kidney Carcinoma) was 0.0107; in assay [1], -0.0325; in the assay with CHL-1 (Melanoma), -0.0031; in assay [2], -0.0177; in assay [3], 0.0137; in assay [4], -0.0271. The Bliss excess in assay [5] is 0.0408; with KYM-1 (Rhabdomyosarcoma), 0.0084; in assay [6] it was 0.0008; in [7], 0.0422; in [8] it was -0.0143; in assay [9], -0.039. Moreover, the Bliss excess in [10] was -0.003; in assay [11], 0.0286; in assay [12], 0.0336; in [13] it was -0.0027; in assay [14], -0.0462; in the assay with RT4 (Bladder Carcinoma), 0.0266. In [15], the Bliss excess was -0.0194.
For the compound `CC(=O)c1c(C)c2cnc(Nc3ccc(N4CCNCC4)cn3)nc2n(C2CCCC2)c1=O` [Palbociclib] + CN(CC[C@H](CSC1=CC=CC=C1)NC2=C(C=C(C=C2)S(=O)(=O)NC(=O)C3=CC=C(C=C3)N4CCC(CC4)[C@H](C5=CC=CC=C5C6=CC=C(C=C6)Cl)O)S(=O)(=O)C(F)(F)F)CCO [AZD4320] (first compound max 10 µM, 7x7, partner max 1 µM), the Bliss excess with 786-0 (Kidney Carcinoma) is -0.0388; in [1] it was -0.129; in [3] it was -0.0254; in assay [4], -0.0712; in [5], -0.0291; in [6] it was 0.0351. Further, the Bliss excess in assay [7] was -0.0327; in assay [9], -0.0621; in assay [11], -0.0307; in assay [12], -0.0566; in assay [14] it was -0.0036; in the assay on RT4 (Bladder Carcinoma), -0.0409. In addition, the Bliss excess in assay [16] was -0.0082.
With `CCc1c2c(nc3ccc(O)cc13)-c1cc3c(c(=O)n1C2)COC(=O)[C@]3(O)CC` [SN-38] + O=C(c1cc(Cc2n[nH]c(=O)c3ccccc23)ccc1F)N1CCN(C(=O)C2CC2)CC1 [Olaparib] (first compound max 0.3 µM, 7x7, partner max 10 µM), the Bliss excess in the assay on 786-0 (Kidney Carcinoma) is 0.0937; in assay [1], -0.0277; with CHL-1 (Melanoma), 0.0683; in assay [2], -0.0188; in [3], 0.0263; in [4], 0.0591. Further, the Bliss excess in assay [5] is 0.0041; with KYM-1 (Rhabdomyosarcoma) it was 0.0383; in [6], 0.0532; in [8], 0.0633; in [10], 0.0609; in [11], 0.0707. Also, the Bliss excess in [13] is 0.0057; in assay [14], 0.0155; in the assay on RT4 (Bladder Carcinoma), 0.0702; in assay [15], -0.0056; in assay [16], 0.0238.
Consider `C[C@@H](c1ccc2nccn2c1)n1nnc2ncc(-c3cnn(C)c3)nc21` [Savolitinib] + CN(CC[C@H](CSC1=CC=CC=C1)NC2=C(C=C(C=C2)S(=O)(=O)NC(=O)C3=CC=C(C=C3)N4CCC(CC4)[C@H](C5=CC=CC=C5C6=CC=C(C=C6)Cl)O)S(=O)(=O)C(F)(F)F)CCO [AZD4320] (first compound max 1 µM, 7x7, partner max 1 µM), for which the Bliss excess in the assay on 786-0 (Kidney Carcinoma) is -0.0642; in assay [1], -0.0896; in assay [3], -0.0152; in assay [4], -0.0215; in assay [5], -0.0341; in assay [6] it was -0.0513. In addition, the Bliss excess was -0.0418 in assay [7]; -0.0718 in assay [9]; 0.0011 in [11]; -0.0297 in assay [12]; -0.0815 in [14]; -0.0284 in the assay with RT4 (Bladder Carcinoma). Moreover, the Bliss excess in [16] is -0.045.
